Test results taken from patent US20210278391A1, “COMPOSITIONS AND METHODS FOR TREATING CARDIOVASCULAR AND METABOLIC CONDITIONS” (The Regents of the University of California, priority 2017, published 2021).

Details: male, C57BL/6, mouse, in vivo, ip
Procedure: Ob/ob mice or wildtype C57BL/6 male mice were purchased from Jackson Labs or SLAC Laboratory Animals Company Limited, Shanghai, China. PP2Cm germ-line knockout mice were generated as previously described (Lu et al. (2009) J Clin Invest 119:1678-1687). All animals were housed at 22° C. with a 12-hour light, 12-hour dark cycle with free access to water and standard chow. BCAA in water was prepared by BCAA powders. Isocaloric high protein diet (TD90018) and low protein diet (TD90016) were purchased from Envigo Teklad Diet. For glucose or insulin tolerance test, mice were fasted for 6 hours and injected (intraperitoneally) with insulin or D-glucose. […] For BCAA tolerance test, ob/ob mice at age of 10 weeks or high fat diet induced obese (DIO) mice were used. To induce DIO, high fat diet (60% kcal % fat) or control diet (10% kcal % fat) (Research Diets, New Brunswick, N.J.) was used to feed mice starting at 6 weeks of age and continued for 8 weeks. […] Plasma samples were collected at 0, 30, 60, 120 minute points to measure BCAA/BCKA levels. […]
Blood samples were collected at 0, 30, 60, 120 minute points as indicated. Plasma was then collected and BCAA/BCKA was measured.

CC(C)C[C@H](N)C(=O)O [leucine]
time point of recovery to near the basal level: 1 h
